Source: PubChem BioAssay (NCI)
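Method: 48-hour compound exposure of cells in 96-well plates, five concentrations, linear interpolation of endpoints. At the TGI there is no net growth.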

Tests used:
Assay in all cases: growth of human tumour cells (NCI), 48 h
[1] = test system: A498 renal
[2] = test system: A549 NSCLC
[3] = test system: HL-60(TB) leukemia
[4] = test system: MCF7 breast
[5] = test system: MDA-MB-231 breast
[6] = test system: NCI-H23 lung
[7] = test system: OVCAR-4 ovarian
[8] = test system: SF-268 CNS
[9] = test system: SN12C renal
[10] = test system: U251 CNS

Row | Structure (SMILES) | TGI [1] | TGI [2] | TGI [3] | TGI [4] | TGI [5] | TGI [6] | TGI [7] | TGI [8] | TGI [9] | TGI [10]
1 | COc1cccc2c1OC1(C=C2)Oc2ccccc2C(=O)N1C (centres undefined) | 57.4 µM | > 100 µM | 75.9 µM | > 100 µM | > 100 µM | > 100 µM | > 100 µM | > 100 µM | > 100 µM | > 100 µM
2 | N#CC12C(=O)N=C(N)C1(C#N)C(c1ccco1)NC1=C2CCCC1 (centres undefined) | > 100 µM | > 100 µM | > 100 µM | > 100 µM | > 100 µM | > 100 µM | > 100 µM | > 100 µM | > 100 µM | > 100 µM
3 | O=S(=O)(CCn1c(Sc2ccccc2)c(Sc2ccccc2)c2ccccc21)c1ccccc1 | > 100 µM | > 100 µM | > 100 µM | > 100 µM | > 100 µM | > 100 µM | > 100 µM | > 100 µM | > 100 µM | > 100 µM
4 | COc1cc(NS(C)(=O)=O)ccc1Nc1cc(C)[nH]c2ccc3nccc3c12 | > 100 µM | > 100 µM | > 100 µM | > 100 µM | > 100 µM | > 100 µM | > 100 µM | > 100 µM | > 100 µM | > 100 µM
5 | O=C(/C=C/c1ccc2c(c1)OCO2)CC(=O)C(=O)c1c[nH]c2ccccc12 | > 100 µM | > 100 µM | > 100 µM | > 100 µM | > 100 µM | > 100 µM |  | > 100 µM | > 100 µM | > 100 µM
6 | O=C(O)/C=C(/C(=O)O)C12CCN3CC4=CCOC5CC(=O)NC1C5C4CC32 (centres undefined) | > 100 µM | > 100 µM | > 100 µM | > 100 µM | > 100 µM | > 100 µM | > 100 µM | > 100 µM | > 100 µM | > 100 µM
7 | COP(=O)(/C=C/c1cc(C(=O)OCc2ccccc2)n(S(=O)(=O)c2ccccc2)c1)OC | > 100 µM | > 100 µM | > 100 µM | > 100 µM | > 100 µM | > 100 µM | > 100 µM | > 100 µM | > 100 µM | > 100 µM
8 | O=C1c2ccccc2-c2c1c(-c1ccc(F)cc1)nc1ccc3ccccc3c21 | > 100 µM | > 100 µM |  | > 100 µM | > 100 µM | > 100 µM | > 100 µM | > 100 µM | > 100 µM | > 100 µM
9 | CCOC(=O)C1=C(C)C2C=C(c3cccs3)CC(c3ccc(Cl)cc3)=C2OC1=O (centres undefined) | > 100 µM | > 100 µM | 31.6 µM | > 100 µM | > 100 µM | > 100 µM | > 100 µM | > 100 µM | > 100 µM | > 100 µM
10 | C=CCSc1nnc2cc(CN3CCCC3)c(-c3ccc(Cl)cc3)nn12 | 35.9 µM | > 100 µM | 43.5 µM | 33.7 µM | 35.6 µM | 59.4 µM | 48 µM | 46 µM | 32.1 µM | 31.2 µM
11 | CC1(C)CCCC2OC2CCC(C)(C)C1=O (centres undefined) | > 100 µM | > 100 µM | > 100 µM | > 100 µM | > 100 µM | > 100 µM | > 100 µM | > 100 µM | > 100 µM | > 100 µM
12 | CCC1(CC)C(=O)NN(C(=O)c2ccccc2)C1=O |  | > 100 µM | > 100 µM | > 100 µM | > 100 µM | > 100 µM | > 100 µM | > 100 µM | > 100 µM | > 100 µM
13 | CCCCC(C(=O)NCCNC(=O)CCC(=O)N(C)O)C(=O)NCCNC(=O)CCC(=O)N(C)O | > 100 µM | > 100 µM | > 100 µM | > 100 µM | > 100 µM | > 100 µM | > 100 µM |  | > 100 µM | > 100 µM
14 | COc1ccc2c(c1)/C(=C\c1c(Cl)nc3sc(C)cn13)C(=O)N2 | 16.6 µM | 17 µM | 6.11 µM | 14.2 µM | 17.7 µM | 18.9 µM |  | 17.3 µM | 21.9 µM | 11.6 µM
15 | O=[N+]([O-])C(/C=C(\Cl)n1nnc2ccccc21)=C(/Cl)n1nnc2ccccc21 | > 100 µM | > 100 µM |  |  | > 100 µM | > 100 µM | > 100 µM | > 100 µM | > 100 µM | > 100 µM
16 | CCOC(=O)Cn1c(=O)c2nc(SC)sc2n(-c2ccccc2)c1=O | > 100 µM | > 100 µM | > 100 µM | > 100 µM | > 100 µM | > 100 µM |  |  | > 100 µM | > 100 µM
17 | Cc1cc(C(=O)CCCCOc2ccc(C3=NCCO3)cc2)c(C)n1C | 86.8 µM |  | 23.7 µM | > 100 µM | > 100 µM | > 100 µM | > 100 µM | > 100 µM | > 100 µM | > 100 µM

Row | Structure (SMILES) | TGI [1] | TGI [2] | TGI [3] | TGI [4] | TGI [5] | TGI [6] | TGI [7] | TGI [8] | TGI [9] | TGI [10]
18 | O=C1NCC2(CCN(CCCC3(c4ccc(F)cc4)OCCO3)CC2)N1c1ccccc1 | > 100 µM | > 100 µM | > 100 µM |  | > 100 µM | > 100 µM | > 100 µM | > 100 µM | > 100 µM | > 100 µM
19 | CC1CCC(C(=O)O)(C(Br)C(=O)O)CC1 (centres undefined) |  | > 100 µM | > 100 µM |  | > 100 µM | > 100 µM | > 100 µM |  | > 100 µM | > 100 µM
20 | Oc1ccc([I+]c2ccccc2)cc1O | > 100 µM | 65.5 µM | 47.1 µM |  | > 100 µM | > 100 µM | > 100 µM | > 100 µM | > 100 µM | > 100 µM
21 | CN(C)c1ccc(S(=O)Nc2ccccc2)cc1 (centres undefined) |  | > 100 µM | > 100 µM | > 100 µM | > 100 µM | > 100 µM | > 100 µM | > 100 µM | > 100 µM | 62.9 µM
22 | COc1cc(/C=C/C(=O)CC(=O)/C=C/c2ccc(OC(=O)CCCCC3CCSS3)c(OC)c2)ccc1OC(=O)CCCCC1CCSS1 (centres undefined) |  | > 100 µM | > 100 µM | > 100 µM | > 100 µM | > 100 µM | > 100 µM | > 100 µM | > 100 µM | > 100 µM
23 | O=c1[nH]c(Nc2nc3ccccc3[nH]2)nc(O)c1-c1ccccc1 | > 100 µM | > 100 µM |  | > 100 µM | > 100 µM | > 100 µM | > 100 µM | > 100 µM | > 100 µM | > 100 µM
24 | CSc1nsc(-c2ccccc2)[s+]1 | > 100 µM | > 100 µM | > 100 µM |  |  |  | > 100 µM | > 100 µM | > 100 µM | > 100 µM
25 | NS(=O)(=O)c1cc2c(cc1Cl)NC(CCC(=O)O)=NS2(=O)=O | > 100 µM | > 100 µM |  | > 100 µM | > 100 µM | > 100 µM | > 100 µM | > 100 µM | > 100 µM | > 100 µM
26 | COc1ccc(NC(=O)CC(=O)N2N=C(N3c4ccccc4Sc4ccccc43)CC2c2ccccc2)cc1 (centres undefined) |  | > 100 µM | > 100 µM | > 100 µM | > 100 µM | > 100 µM | > 100 µM | 82.9 µM | > 100 µM | > 100 µM
27 | CCN(CC)CCN(C(=Nc1ccccc1)N1CCOCC1)c1ccccc1 |  | > 100 µM | > 100 µM | > 100 µM | > 100 µM | > 100 µM | > 100 µM | > 100 µM | > 100 µM | > 100 µM
28 | CN(C)C1(N(C)C)Oc2c(c(=O)n(C)c(=O)n2C)C(c2ccc(Br)cc2)C1(F)F (centres undefined) | > 100 µM | > 100 µM |  | > 100 µM | > 100 µM | > 100 µM | > 100 µM | > 100 µM |  | > 100 µM
29 | CCCSCC(P(=O)(O)O)P(=O)(O)O | > 100 µM | > 100 µM | > 100 µM | > 100 µM |  | > 100 µM | > 100 µM | > 100 µM | > 100 µM | > 100 µM
30 | CCOP(=O)(OCC)C(c1ccc(F)cc1)N(C(=O)NC(F)(F)F)c1ccc(OC)cc1 (centres undefined) |  | > 100 µM | > 100 µM | > 100 µM | > 100 µM | > 100 µM |  | > 100 µM | > 100 µM | > 100 µM
31 | COc1ccc(C2=N/C(=C\c3ccccc3)C(=O)O2)cc1 |  | > 100 µM | 31 µM | > 100 µM |  |  | > 100 µM | > 100 µM |  | > 100 µM
32 | CCCC(=O)OC1CC(n2cc(F)c(=O)[nH]c2=O)OC1COP(=O)(OCC(Cl)(Cl)Cl)OCC(Cl)(Cl)Cl (centres undefined) |  | > 94.6 µM | 40.4 µM | > 100 µM | > 100 µM | > 100 µM | > 100 µM | > 31.6 µM | > 100 µM | > 78.8 µM
33 | CS(=O)c1ncc2c(n1)-c1ccccc1OC2 (centres undefined) |  | > 100 µM | > 100 µM | > 100 µM | > 100 µM | > 100 µM | > 100 µM | > 100 µM | > 100 µM | > 100 µM
34 | O=C(CC(C(=O)c1ccsc1)c1ccc2c(c1)OCO2)c1ccccc1 (centres undefined) | > 100 µM | 50.7 µM | > 100 µM | > 100 µM |  | 63.1 µM | > 100 µM | > 100 µM | > 100 µM | > 100 µM
